According to patent US20260022142A1, “MACROCYCLIC IMMUNOMODULATORS” (Bristol-Myers Squibb Company, priority 2022, published 2026):
Bridge positions count the residues as written; N and C are the ends. Square brackets hold non-standard residues; d marks the D form. Peptide text beside a SMILES is read from it. * marks the point of attachment. Phe(4-CONH2) = NC(=O)c1ccc(C[C@H](N)C(=O)O)cc1; Phe(4-COOH) = N[C@@H](Cc1ccc(C(=O)O)cc1)C(=O)O; Bip = N[C@@H](Cc1ccc(-c2ccccc2)cc1)C(=O)O; Phe(3-Me) = Cc1cccc(C[C@H](N)C(=O)O)c1; Cha = N[C@@H](CC1CCCCC1)C(=O)O; Cit = NC(=O)NCCC[C@H](N)C(=O)O; Carboxymethyl = O=C(O)C*; Orn = NCCC[C@H](N)C(=O)O; Aun = NCCCCCCCCCCC(=O)O; Dab = NCC[C@H](N)C(=O)O

Target: T1, PD-1/PD-L1 interaction (PE-labeled human PD-L1-Ig binding to Jurkat cell line over-expressing human PD-1) (Homo sapiens, UniProt Q15116)
T1 construct: expressed in transfected cells; host or cells: Jurkat
Test: Jurkat-PD-1 Cell Binding High-Content Screening Assay (CBA)
Type: cell-based
Conditions: Jurkat cell line over-expressing human PD-1; PE-labeled PD-L1-Ig 20 nM final; read-out: Jurkat hPD1-PDL1 IC50
How it was run: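 First, compound is added to PD-1-expressing Jurkat cells in serum-containing DMEM and left 2 h at 37° C. Next, PE-conjugated PD-L1-Ig is introduced at 20 nM final concentration for 1 hour. Finally, cells are fixed in 4% paraformaldehyde with Hoechst 33342, washed and imaged.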

T1 sequence (Q15116 25-288): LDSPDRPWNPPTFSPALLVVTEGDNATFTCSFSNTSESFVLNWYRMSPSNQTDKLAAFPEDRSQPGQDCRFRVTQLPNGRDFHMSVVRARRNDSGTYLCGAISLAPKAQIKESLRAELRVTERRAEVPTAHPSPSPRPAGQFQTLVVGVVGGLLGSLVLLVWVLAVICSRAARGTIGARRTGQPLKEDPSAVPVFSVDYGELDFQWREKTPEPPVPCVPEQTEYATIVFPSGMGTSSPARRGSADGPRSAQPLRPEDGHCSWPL

## Cc1cccc(C[C@@H]2NC(=O)[C@H](CC(=O)O)NC(=O)[C@H](Cc3ccc(OCC(=O)O)cc3)NC(=O)[C@H](CCCNC(=N)N)NC(=O)CSC[C@@H](C(=O)N[C@@H](CCN)C(=O)NCCCCCCCCCCC(=O)O)NC(=O)[C@@H](CCC(N)=O)NC(=O)[C@H](C(C)C)NC(=O)[C@H](CC3CCCCC3)NC(=O)[C@H](CCN)NC(=O)[C@@H](CC(C)C)NC(=O)[C@H](CCN)NC(=O)[C@H](CCCNC(N)=O)NC(=O)[C@H](Cc3ccc(-c4ccccc4)cc3)NC(=O)[C@H](C(C)C)NC2=O)c1 [Compound 2820] ({CH2CO}-RY(Carboxymethyl)D[Phe(3-Me)]V[Bip][Cit][Dab][dL][Dab][Cha]V[dQ]C[Dab][Aun]-OH; thioether N-14)
  IC50: 23.9 nM

## Cc1cccc(C[C@@H]2NC(=O)[C@H](CC(=O)O)NC(=O)[C@H](Cc3ccc(OCC(=O)O)cc3)NC(=O)[C@H](CCN)NC(=O)CSC[C@@H](C(=O)N[C@@H](CCN)C(=O)NCCCCCCCCCCC(=O)O)NC(=O)[C@H]([C@@H](C)O)NC(=O)[C@H](C(C)C)NC(=O)[C@H](CC3CCCCC3)NC(=O)[C@H](CCN)NC(=O)[C@@H](CC(C)C)NC(=O)[C@H](CCCN)NC(=O)[C@H](CCCNC(N)=O)NC(=O)[C@H](Cc3ccc(-c4ccccc4)cc3)NC(=O)[C@H](C(C)C)NC2=O)c1 [Compound 2821] ({CH2CO}-[Dab]Y(Carboxymethyl)D[Phe(3-Me)]V[Bip][Cit][Orn][dL][Dab][Cha]VTC[Dab][Aun]-OH; thioether N-14)
  IC50: 10.9 nM

## Cc1cccc(C[C@@H]2NC(=O)[C@H](CC(=O)O)NC(=O)[C@H](Cc3ccc(OCC(=O)O)cc3)NC(=O)[C@H](CCCN)NC(=O)CSC[C@@H](C(=O)N[C@@H](CCN)C(=O)NCCCCCCCCCCC(=O)O)NC(=O)[C@H]([C@@H](C)O)NC(=O)[C@H](C(C)C)NC(=O)[C@H](CC3CCCCC3)NC(=O)[C@H](CCN)NC(=O)[C@@H](CC(C)C)NC(=O)[C@H](CCCN)NC(=O)[C@H](CCCNC(N)=O)NC(=O)[C@H](Cc3ccc(-c4ccccc4)cc3)NC(=O)[C@H](C(C)C)NC2=O)c1 [Compound 2822] ({CH2CO}-[Orn]Y(Carboxymethyl)D[Phe(3-Me)]V[Bip][Cit][Orn][dL][Dab][Cha]VTC[Dab][Aun]-OH; thioether N-14)
  IC50: 21.9 nM

## Cc1cccc(C[C@@H]2NC(=O)[C@H](CC(=O)O)NC(=O)[C@H](Cc3ccc(OCC(=O)O)cc3)NC(=O)[C@H](CCCCN)NC(=O)CSC[C@@H](C(=O)N[C@@H](CCN)C(=O)NCCCCCCCCCCC(=O)O)NC(=O)[C@H]([C@@H](C)O)NC(=O)[C@H](C(C)C)NC(=O)[C@H](CC3CCCCC3)NC(=O)[C@H](CCN)NC(=O)[C@@H](CC(C)C)NC(=O)[C@H](CCCN)NC(=O)[C@H](CCCNC(N)=O)NC(=O)[C@H](Cc3ccc(-c4ccccc4)cc3)NC(=O)[C@H](C(C)C)NC2=O)c1 [Compound 2823] ({CH2CO}-KY(Carboxymethyl)D[Phe(3-Me)]V[Bip][Cit][Orn][dL][Dab][Cha]VTC[Dab][Aun]-OH; thioether N-14)
  IC50: 16.4 nM

## Cc1cccc(C[C@@H]2NC(=O)[C@H](CC(=O)O)NC(=O)[C@H](Cc3ccc(OCC(=O)O)cc3)NC(=O)[C@H](CCCNC(N)=O)NC(=O)CSC[C@@H](C(=O)N[C@@H](CCN)C(=O)NCCCCCCCCCCC(=O)O)NC(=O)[C@H]([C@@H](C)O)NC(=O)[C@H](C(C)C)NC(=O)[C@H](CC3CCCCC3)NC(=O)[C@H](CCN)NC(=O)[C@@H](CC(C)C)NC(=O)[C@H](CCCN)NC(=O)[C@H](CCCNC(N)=O)NC(=O)[C@H](Cc3ccc(-c4ccccc4)cc3)NC(=O)[C@H](C(C)C)NC2=O)c1 [Compound 2824] ({CH2CO}-[Cit]Y(Carboxymethyl)D[Phe(3-Me)]V[Bip][Cit][Orn][dL][Dab][Cha]VTC[Dab][Aun]-OH; thioether N-14)
  IC50: 25.5 nM

## Cc1cccc(C[C@@H]2NC(=O)[C@H](CC(=O)O)NC(=O)[C@H](Cc3ccc(OCC(=O)O)cc3)NC(=O)[C@H](Cc3ccccc3)NC(=O)CSC[C@@H](C(=O)N[C@@H](CCN)C(=O)NCCCCCCCCCCC(=O)O)NC(=O)[C@H]([C@@H](C)O)NC(=O)[C@H](C(C)C)NC(=O)[C@H](CC3CCCCC3)NC(=O)[C@H](CCN)NC(=O)[C@@H](CC(C)C)NC(=O)[C@H](CCCN)NC(=O)[C@H](CCCNC(N)=O)NC(=O)[C@H](Cc3ccc(-c4ccccc4)cc3)NC(=O)[C@H](C(C)C)NC2=O)c1 [Compound 2825] ({CH2CO}-FY(Carboxymethyl)D[Phe(3-Me)]V[Bip][Cit][Orn][dL][Dab][Cha]VTC[Dab][Aun]-OH; thioether N-14)
  IC50: 201 nM

## Cc1cccc(C[C@@H]2NC(=O)[C@H](CC(=O)O)NC(=O)[C@H](Cc3ccc(OCC(=O)O)cc3)NC(=O)[C@H](Cc3ccc(O)cc3)NC(=O)CSC[C@@H](C(=O)N[C@@H](CCN)C(=O)NCCCCCCCCCCC(=O)O)NC(=O)[C@H]([C@@H](C)O)NC(=O)[C@H](C(C)C)NC(=O)[C@H](CC3CCCCC3)NC(=O)[C@H](CCN)NC(=O)[C@@H](CC(C)C)NC(=O)[C@H](CCCN)NC(=O)[C@H](CCCNC(N)=O)NC(=O)[C@H](Cc3ccc(-c4ccccc4)cc3)NC(=O)[C@H](C(C)C)NC2=O)c1 [Compound 2826] ({CH2CO}-YY(Carboxymethyl)D[Phe(3-Me)]V[Bip][Cit][Orn][dL][Dab][Cha]VTC[Dab][Aun]-OH; thioether N-14)
  IC50: 62.2 nM

## Cc1cccc(C[C@@H]2NC(=O)[C@H](CC(=O)O)NC(=O)[C@H](Cc3ccc(OCC(=O)O)cc3)NC(=O)[C@H](Cc3ccc(C(N)=O)cc3)NC(=O)CSC[C@@H](C(=O)N[C@@H](CCN)C(=O)NCCCCCCCCCCC(=O)O)NC(=O)[C@H]([C@@H](C)O)NC(=O)[C@H](C(C)C)NC(=O)[C@H](CC3CCCCC3)NC(=O)[C@H](CCN)NC(=O)[C@@H](CC(C)C)NC(=O)[C@H](CCCN)NC(=O)[C@H](CCCNC(N)=O)NC(=O)[C@H](Cc3ccc(-c4ccccc4)cc3)NC(=O)[C@H](C(C)C)NC2=O)c1 [Compound 2827] ({CH2CO}-[Phe(4-CONH2)]Y(Carboxymethyl)D[Phe(3-Me)]V[Bip][Cit][Orn][dL][Dab][Cha]VTC[Dab][Aun]-OH; thioether N-14)
  IC50: 13.1 nM

## Cc1cccc(C[C@@H]2NC(=O)[C@H](CC(=O)O)NC(=O)[C@H](Cc3ccc(OCC(=O)O)cc3)NC(=O)[C@H](Cc3ccc(OCC(=O)O)cc3)NC(=O)CSC[C@@H](C(=O)N[C@@H](CCN)C(=O)NCCCCCCCCCCC(=O)O)NC(=O)[C@H]([C@@H](C)O)NC(=O)[C@H](C(C)C)NC(=O)[C@H](CC3CCCCC3)NC(=O)[C@H](CCN)NC(=O)[C@@H](CC(C)C)NC(=O)[C@H](CCCN)NC(=O)[C@H](CCCNC(N)=O)NC(=O)[C@H](Cc3ccc(-c4ccccc4)cc3)NC(=O)[C@H](C(C)C)NC2=O)c1 [Compound 2828] ({CH2CO}-Y(Carboxymethyl)Y(Carboxymethyl)D[Phe(3-Me)]V[Bip][Cit][Orn][dL][Dab][Cha]VTC[Dab][Aun]-OH; thioether N-14)
  IC50: 77.4 nM

## Cc1cccc(C[C@@H]2NC(=O)[C@H](CC(=O)O)NC(=O)[C@H](Cc3ccc(OCC(=O)O)cc3)NC(=O)[C@H](Cc3ccc(C(=O)O)cc3)NC(=O)CSC[C@@H](C(=O)N[C@@H](CCN)C(=O)NCCCCCCCCCCC(=O)O)NC(=O)[C@H]([C@@H](C)O)NC(=O)[C@H](C(C)C)NC(=O)[C@H](CC3CCCCC3)NC(=O)[C@H](CCN)NC(=O)[C@@H](CC(C)C)NC(=O)[C@H](CCCN)NC(=O)[C@H](CCCNC(N)=O)NC(=O)[C@H](Cc3ccc(-c4ccccc4)cc3)NC(=O)[C@H](C(C)C)NC2=O)c1 [Compound 2829] ({CH2CO}-[Phe(4-COOH)]Y(Carboxymethyl)D[Phe(3-Me)]V[Bip][Cit][Orn][dL][Dab][Cha]VTC[Dab][Aun]-OH; thioether N-14)
  IC50: 162 nM
